# Assay results from US20240016804A1, “METHODS AND MATERIALS FOR ASSESSING AND TREATING HYPERTENSIVE DISORDERS” (Mayo Foundation for Medical Education and Research, priority 2019, published 2024).
# System: PE-MSC
# Assay: Apoptosis assay for MSC (Annexin V, IncuCyte S3, Red Object Count), PE-MSC
# Format: cell-based, human
# Details: dose response 1, 2, 5 and 10 μM, 24 hours
# Description: MSC isolation from adipose tissue: Abdominal fat tissue (3-5 g) obtained during C-section was cultured at 37° C./5% CO2 in Advanced MEM media supplemented with 5% platelet lysate (PLTmax, Mill Creek Life Sciences, Rochester, MN), which provides a robust growth medium. The third passage of cells was used for phenotype/function analysis. MSC were positive to CD90, CD44, and CD105, negative to CD34, CD31, and CD45 by Flow Cytometry (FlowSight™, Amnis, Seattle, WA), and were able to transdifferentiate into adipocytes, chondrocytes, and osteocytes. For studies in non-pregnant subjects, MSC were isolated from three healthy kidney donors at time of kidney donation.
# Apoptosis was assessed by Annexin V reagent (Essen Bioscience) using the IncuCyte S3 Live-Cell Analysis System (Essen Bioscience).
# The initial dose response experiments were performed to determine the optimal Dasatinib concentration using the apoptotic assay and IncuCyte S3 Live-Cell Analysis System (Essen Bioscience). Approximately 1×10^6 MSC (PE and NP) in passage #4, were treated with the senolytic drug, Dasatinib at concentrations of 1, 2, 5 and 10 μM (dissolved in 0.1% DMSO) for 24 hours. Three groups were analyzed: 1) cells incubated in media, 2) vehicle: cells treated with 0.1% DMSO, 3) cells treated with Dasatinib. […] Annexin V, added at the beginning of the treatment, labeled apoptotic cells yielding red fluorescence. […]
structure (smiles),measurement,value
Cc1nc(Nc2ncc(C(=O)Nc3c(C)cccc3Cl)s2)cc(N2CCN(CCO)CC2)n1 [Dasatinib],Optimal concentration (from ratios of apoptotic cells),1 µM
